Patent US8440724B2, “Inhibiting neurotransmitter reuptake” (Mayo Foundation for Medical Education and Research, priority 2008, dated 2013)
Entries after “also recorded” stand apart in the source; their conditions may differ. Read-outs that look alike come from different tables or passages of the source.

How the values were obtained:
[1] = target: T1, human norepinephrine transporter (hNET) (Homo sapiens, UniProt P23975); test: Radioligand binding to cloned hNET, [3H]nisoxetine, HEK-293 cell membranes
T1 construct: expressed in transfected cells; host or cells: HEK-293, stably transfected
T1 sequence (P23975 whole entry): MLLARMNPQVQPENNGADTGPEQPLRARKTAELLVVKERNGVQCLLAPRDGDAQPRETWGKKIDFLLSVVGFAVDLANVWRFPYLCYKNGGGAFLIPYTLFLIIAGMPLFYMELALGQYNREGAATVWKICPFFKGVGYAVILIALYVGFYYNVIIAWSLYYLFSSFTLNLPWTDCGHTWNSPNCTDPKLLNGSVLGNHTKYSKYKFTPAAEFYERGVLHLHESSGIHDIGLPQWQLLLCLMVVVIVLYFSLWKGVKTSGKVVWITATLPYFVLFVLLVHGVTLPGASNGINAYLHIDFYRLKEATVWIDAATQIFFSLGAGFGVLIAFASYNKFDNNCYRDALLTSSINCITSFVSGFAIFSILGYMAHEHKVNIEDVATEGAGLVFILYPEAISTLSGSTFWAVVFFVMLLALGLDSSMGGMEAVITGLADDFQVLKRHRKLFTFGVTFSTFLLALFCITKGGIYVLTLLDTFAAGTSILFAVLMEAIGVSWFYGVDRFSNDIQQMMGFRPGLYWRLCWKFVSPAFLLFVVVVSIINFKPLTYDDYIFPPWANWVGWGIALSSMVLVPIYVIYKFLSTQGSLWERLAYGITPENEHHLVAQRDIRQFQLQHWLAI

male C57BL/6J mice = test: Tail suspension test (TST) in mice; assay type: in vivo, mouse; settings: for Duration of immobility in TST vs saline: 5 mg/kg IP, FIG. 10E
Procedure: When mice are suspended by their tail, there is an initial period of agitation, followed by immobility. This test identifies antidepressant compounds, which decrease the duration of immobility.
Test compounds were prepared by formulating the compounds with a pharmaceutically acceptable carrier such as saline. […] Each mouse was then subjected to the tail-suspension test (TST). Each mouse (n>3) was suspended by its tail 45 cm above the table top with the use of adhesive tape placed 1 cm from the tip of its tail. Behavior was scored every 5 seconds throughout the 6-minute test as either mobile or immobile (FIG. 10A-D) or total duration of immobility during the 6-minute test (FIGS. 10E and 10H). Mice were considered immobile only when hanging passively and completely motionless. Scores for each behavior were expressed as total counts per 6-minute session.

[2] = target: T2, rat dopamine transporter, synaptosomal preparations (Rattus norvegicus, UniProt P23977); test: Inhibition of [3H]DA reuptake in rat brain synaptosomes (striatum); assay type: biochemical
T2 construct: and striatal tissues for transport of dopamine; from tissue; host or cells: rat striatum synaptosomes (male Sprague-Dawley)
T2 sequence (P23977 whole entry): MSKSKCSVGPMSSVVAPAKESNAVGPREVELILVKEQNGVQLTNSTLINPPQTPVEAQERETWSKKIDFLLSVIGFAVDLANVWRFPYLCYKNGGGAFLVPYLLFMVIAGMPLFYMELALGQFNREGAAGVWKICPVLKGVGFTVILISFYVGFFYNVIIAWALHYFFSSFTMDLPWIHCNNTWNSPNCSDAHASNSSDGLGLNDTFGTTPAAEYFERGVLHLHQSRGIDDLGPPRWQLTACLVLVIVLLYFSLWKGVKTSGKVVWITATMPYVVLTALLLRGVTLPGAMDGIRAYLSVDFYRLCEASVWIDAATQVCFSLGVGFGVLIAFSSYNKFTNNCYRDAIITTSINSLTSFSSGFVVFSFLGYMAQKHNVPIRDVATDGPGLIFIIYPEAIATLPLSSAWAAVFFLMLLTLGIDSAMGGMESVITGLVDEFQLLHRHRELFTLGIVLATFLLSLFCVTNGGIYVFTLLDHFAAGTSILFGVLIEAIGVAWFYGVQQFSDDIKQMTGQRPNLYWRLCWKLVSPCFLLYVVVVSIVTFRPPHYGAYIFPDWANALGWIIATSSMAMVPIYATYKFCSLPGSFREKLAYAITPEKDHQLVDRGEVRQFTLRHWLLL
Procedure: The dissected tissues were separately homogenized in 20 volumes (cortical) or 40 volumes (striatal) of ice-cold, oxygenated HEPES buffer 0.32 M sucrose containing 11 mM glucose (pH 7.4) in a glass Potter-Elvehjem homogenizer with Teflon® pestle (8 strokes, 900 rpm). The homogenates were centrifuged at 1,000×g for 10 minutes. The resulting supernatant was decanted and further centrifuged at 20,000×g for 20 minutes at 4° C. […] The synaptosomal protein concentration was determined by using the BCA assay (Pierce Biotechnology Inc, Rockford, Ill.), according to the manufacturer's instructions. Synaptosomal protein (1.0-2.5 mg) was suspended in 1 mL oxygenated incubation buffer as defined above. Test amine compound was pre-incubated with the synaptosomal preparation for 30 minutes at 37° C. in a shaking water bath (80 oscillations/minute).

[3] = tested on: human serotonin, norepinephrine and dopamine transporters; test: Transport into cells expressing human transporters: rank order of potency, comparison with rat; assay type: cell-based; settings: for Potency (rank order, transport into cells expressing human transporters): from Ki values, S = 5-HT, N = NE, D = DA; for Species selectivity: blocking transport by human vs rat serotonin and dopamine transporters: human transporters in cells vs rat synaptosomal preparations (Tables 3 and 4)
Male Sprague-Dawley rats = test: Forced swim test in rats; assay type: in vivo, rat
How it was run: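 Male Sprague-Dawley rats got a 15 min pretest swim, then a 5-minute test 24 h later. Immobility (floating, only head-keeping movements) and swimming scored as total counts per 5-min session; ANOVA with Tukey post-hoc test.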

hERG = hERG (Homo sapiens, UniProt Q12809); test: hERG assay: block of rubidium ion (Rb+) efflux from cells expressing hERG; settings: for Blocking of hERG channel compared with PRC200-SS: in words
Chain of hERG (Q12809 whole entry): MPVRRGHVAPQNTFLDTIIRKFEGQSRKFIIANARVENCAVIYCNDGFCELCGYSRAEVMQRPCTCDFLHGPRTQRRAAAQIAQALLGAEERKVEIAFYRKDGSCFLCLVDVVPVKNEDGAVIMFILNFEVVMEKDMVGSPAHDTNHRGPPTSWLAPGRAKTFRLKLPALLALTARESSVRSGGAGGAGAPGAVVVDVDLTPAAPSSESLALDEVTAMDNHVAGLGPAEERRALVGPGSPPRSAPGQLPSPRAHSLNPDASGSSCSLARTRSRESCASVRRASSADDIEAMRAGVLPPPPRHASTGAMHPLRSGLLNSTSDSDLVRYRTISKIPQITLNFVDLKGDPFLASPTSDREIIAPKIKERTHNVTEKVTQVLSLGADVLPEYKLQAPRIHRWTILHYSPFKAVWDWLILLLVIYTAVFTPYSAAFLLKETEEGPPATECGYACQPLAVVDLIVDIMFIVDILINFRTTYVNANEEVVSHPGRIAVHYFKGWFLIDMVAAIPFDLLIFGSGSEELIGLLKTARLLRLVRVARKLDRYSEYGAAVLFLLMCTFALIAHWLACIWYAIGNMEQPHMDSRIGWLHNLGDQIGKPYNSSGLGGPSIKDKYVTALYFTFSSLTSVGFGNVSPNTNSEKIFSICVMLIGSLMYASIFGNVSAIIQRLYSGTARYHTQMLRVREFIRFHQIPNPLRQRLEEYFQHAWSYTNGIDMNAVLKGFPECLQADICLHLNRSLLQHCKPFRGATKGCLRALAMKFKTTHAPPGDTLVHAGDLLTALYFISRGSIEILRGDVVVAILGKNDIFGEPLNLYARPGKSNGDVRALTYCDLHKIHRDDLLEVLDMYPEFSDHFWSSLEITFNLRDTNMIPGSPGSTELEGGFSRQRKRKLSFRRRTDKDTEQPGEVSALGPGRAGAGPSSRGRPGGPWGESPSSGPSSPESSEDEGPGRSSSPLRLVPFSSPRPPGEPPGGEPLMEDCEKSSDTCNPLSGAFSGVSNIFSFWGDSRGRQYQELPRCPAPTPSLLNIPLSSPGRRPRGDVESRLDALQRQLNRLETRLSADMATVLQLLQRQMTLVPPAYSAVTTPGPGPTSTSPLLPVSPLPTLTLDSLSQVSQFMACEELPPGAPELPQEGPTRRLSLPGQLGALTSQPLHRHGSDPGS
Procedure: Human “ether-a-go-go” (hERG) is an ion channel. Blockade of this channel can be predictive of causing cardiac arrhythmias in humans. hERG assays were performed to measure the ability of a compound to block rubidium ion (Rb^+) efflux from cells expressing hERG. Cells were pre-loaded with Rb^+, incubated with test compound, and then exposed to a buffer that opens the channel and allows the efflux of ions. Compounds as powder were dissolved in 100% DMSO to prepare 100 mM stock solutions. […] The stocks were stored at 23° C.
The range of doses for the test compounds was 30 nM through 100,000 nM.

[4] = mice, 5 and 10 mg/kg IP, 30 minutes before testing
[5] = Geometric Mean ± SEM, rat brain synaptosomes, read-out: Inhibitor Constant (Ki), DA transport
[6] = Geometric Mean ± SEM, HCl salts, read-out: Equilibrium Dissociation Constant (KD) for Transporter Binding, hNET (N)

Row | SMILES | Kd [1] | Ki [2, 5] | Potency (rank order, transport into cells expressing human transporters) [3] | Kd [1, 6] | Antidepressant activity in forced swim test compared with imipramine (15 mg/kg IP) (Male Sprague-Dawley rats; 5 mg/kg IP, FIG. 12A) | IC50 (hERG) | Immobility in forced swim test vs saline (Male Sprague-Dawley rats; 5 mg/kg IP) | Swimming in forced swim test vs saline (Male Sprague-Dawley rats; 5 mg/kg IP) | also measured
1 | CNCC(c1ccc2ccccc2c1)C(F)c1ccccc1 (racemic) [MCJ001-F-(±)-RR, (2R,3R/2S,3S)-3-fluoro-N-methyl-2-(naphthalen-2-yl)-3-phenylpropan-1-amine] | 4.5 ± 0.8 nM | 250 ± 9 nM | N > S > D |  |  |  |  |  | Immobility in TST (counts per 6-minute session) vs saline (male C57BL/6J mice; mice, 5 and 10 mg/kg IP): significantly (P≦0.016) reduced immobility; Mobility in TST (counts per 6-minute session) vs saline (male C57BL/6J mice; [4]): significantly (P≦0.016) increased mobility
2 | CNC[C@H](c1ccc2ccccc2c1)[C@H](OCCCCCO[C@H](c1ccccc1)[C@H](CNC)c1ccc2ccccc2c1)c1ccccc1 [MCJ001-Dimer5-SS, (2S,2′S,3S,3′S)-3,3′-(pentane-1,5-diylbis(oxy))bis(N-methyl-2-(naphthalen-2-yl)-3-phenylpropan-1-amine)] |  | 800 ± 300 nM | S > D > N | 160 ± 30 nM |  |  |  |  | Duration of immobility in TST vs saline (male C57BL/6J mice; mice): except MCJ002-NH2-SS and MCJ001-Dimer5-SS, significantly reduced the time that the animals were immobile; Species selectivity: blocking transport by human vs rat serotonin and dopamine transporters [3]: much more potent at blocking transport by the human serotonin and dopamine transporters
3 | CNC[C@H](c1ccc2ccccc2c1)[C@@H](F)c1ccccc1 [MCJ001-F-RS, (2S,3R)-3-fluoro-N-methyl-2-(naphthalen-2-yl)-3-phenylpropan-1-amine] | 0.9 ± 0.1 nM |  | S > N > D |  | antidepressant activity that was similar to that observed in rats treated with the positive control | 92400 nM |  |  | Immobility in TST (counts per 6-minute session) vs saline (male C57BL/6J mice; mice, 1, 2.5, and 5 mg/kg IP, FIG. 10B): significantly (P<0.005) reduced immobility; Mobility in TST (counts per 6-minute session) vs saline (male C57BL/6J mice; mice, 2.5 and 5 mg/kg IP, FIG. 10B): significantly (P<0.005) increased mobility; Immobility in forced swim test, 5 mg/kg IP vs 5 mg/kg PO of the same compound (Male Sprague-Dawley rats): statistically (P<0.02) more swimming and less immobility; Swimming in forced swim test, 5 mg/kg IP vs 5 mg/kg PO of the same compound (Male Sprague-Dawley rats): statistically (P<0.02) more swimming and less immobility; Climbing in forced swim test vs saline (Male Sprague-Dawley rats; 5 mg/kg IP): statistically (P<0.02) more swimming and climbing; Immobility in forced swim test vs saline (Male Sprague-Dawley rats; 5 mg/kg IP, 5 mg/kg): statistically (P<0.04) less immobility; also recorded: statistically (P<0.02) less immobility; Swimming in forced swim test vs saline (Male Sprague-Dawley rats; 5 mg/kg IP, 5 mg/kg): statistically (P<0.04) more swimming behavior; also recorded: statistically (P<0.02) more swimming and climbing; Immobility in forced swim test vs imipramine (15 mg/kg IP) (Male Sprague-Dawley rats; 5 mg/kg IP, FIG. 12A): statistically (P<0.04) less immobility than rats treated with imipramine; Climbing in forced swim test vs saline (Male Sprague-Dawley rats; 5 mg/kg PO): statistically (P<0.02) more swimming and climbing; Immobility in forced swim test vs saline (Male Sprague-Dawley rats; 5 mg/kg PO): statistically (P<0.02) less immobility; Swimming in forced swim test vs saline (Male Sprague-Dawley rats; 5 mg/kg PO): statistically (P<0.02) more swimming and climbing; Blocking of hERG channel compared with PRC200-SS (hERG): weaker than PRC200-SS at blocking this channel; Ki [2]: 58 ± 6 nM
4 | CNC[C@@H](c1ccc2ccccc2c1)[C@H](F)c1ccccc1 [MCJ001-F-SR, (2R,3S)-3-fluoro-N-methyl-2-(naphthalen-2-yl)-3-phenylpropan-1-amine] | 430 ± 70 nM | 130 ± 20 nM |  |  | antidepressant activity that was similar to that observed in rats treated with the positive control | 94000 nM | statistically (P<0.04) less immobility | statistically (P<0.04) more swimming behavior | Binding at hNET compared to PRC200-SS ([1]; in words): much more weakly at hNET and hSERT; Immobility in TST (counts per 6-minute session) vs saline (male C57BL/6J mice; mice, 10 mg/kg IP, FIG. 10C): significantly (P<0.033) reduced immobility; Mobility in TST (counts per 6-minute session) vs saline (male C57BL/6J mice; mice, 10 mg/kg IP, FIG. 10C): significantly (P≦0.033) increased mobility; Blocking of hERG channel compared with PRC200-SS (hERG): weaker than PRC200-SS at blocking this channel
5 | CNC[C@H](c1ccc2ccccc2c1)[C@@H](N=[N+]=[N-])c1ccccc1 [MCJ001-N3-RS, (2S,3R)-3-azido-N-methyl-2-(naphthalen-2-yl)-3-phenylpropan-1-amine] |  | 270 ± 50 nM | N > S > D | 64 ± 7 nM | antidepressant activity that was similar to that observed in rats treated with the positive control | 39200 nM | statistically (P<0.04) less immobility | statistically (P<0.04) more swimming behavior | 
6 | CNC[C@@H](c1ccc2ccccc2c1)[C@H](N=[N+]=[N-])c1ccccc1 [MCJ001-N3-SR, (2R,3S)-3-azido-N-methyl-2-(naphthalen-2-yl)-3-phenylpropan-1-amine] |  | 2000 ± 300 nM | S > D > N | 700 ± 100 nM |  |  |  |  | Species selectivity: blocking transport by human vs rat serotonin and dopamine transporters [3]: much more potent at blocking transport by the human serotonin and dopamine transporters
7 | CNC[C@H](c1ccc2ccccc2c1)[C@H](OC)c1ccccc1 [MCJ001-OMe-SS, (2S,3S)-3-methoxy-N-methyl-2-(naphthalen-2-yl)-3-phenylpropan-1-amine] |  | 46 ± 5 nM | N > S > D | 1.4 ± 0.2 nM | antidepressant activity that was similar to that observed in rats treated with the positive control |  | statistically (P<0.04) less immobility | statistically (P<0.04) more swimming behavior | Immobility in TST (counts per 6-minute session) vs saline (male C57BL/6J mice; mice, 15 mg/kg orally (gastric gavage), FIG. 10A): significantly (P<0.02) reduced immobility; Immobility in TST (counts per 6-minute session) vs saline (male C57BL/6J mice; mice, 5 and 10 mg/kg IP): significantly (P<0.02) reduced immobility; Mobility in TST (counts per 6-minute session) vs saline (male C57BL/6J mice; [4]): significantly (P<0.02) increased mobility
8 | CN(C)C[C@H](c1ccc2ccccc2c1)[C@H](N)c1ccccc1 [MCJ002-NH2-SS, (2S,3S)-N1,N1-dimethyl-2-(naphthalen-2-yl)-3-phenylpropane-1,3-diamine] |  |  |  | 12.6 ± 0.9 nM | antidepressant activity that was similar to that observed in rats treated with the positive control | 67900 nM | statistically (P<0.04) less immobility | statistically (P<0.04) more swimming behavior | Occupancy of hNET binding sites ([1]; when the compound occupies 95% of hSERT binding sites, calculation based on occupancy theory): 79%; Duration of immobility in TST vs saline (male C57BL/6J mice; mice): except MCJ002-NH2-SS and MCJ001-Dimer5-SS, significantly reduced the time that the animals were immobile
